Source: patent EP4782453A1 (Beyang Therapeutics Co., Ltd., priority 2023, dated 2025)

Target: T1, Menin-MLL (Homo sapiens, UniProt O00255)
T1 construct: His-Menin (M1-L615 end); purchased BIORTUS BP9210
T1 sequence (O00255 1-615 isoform O00255-1): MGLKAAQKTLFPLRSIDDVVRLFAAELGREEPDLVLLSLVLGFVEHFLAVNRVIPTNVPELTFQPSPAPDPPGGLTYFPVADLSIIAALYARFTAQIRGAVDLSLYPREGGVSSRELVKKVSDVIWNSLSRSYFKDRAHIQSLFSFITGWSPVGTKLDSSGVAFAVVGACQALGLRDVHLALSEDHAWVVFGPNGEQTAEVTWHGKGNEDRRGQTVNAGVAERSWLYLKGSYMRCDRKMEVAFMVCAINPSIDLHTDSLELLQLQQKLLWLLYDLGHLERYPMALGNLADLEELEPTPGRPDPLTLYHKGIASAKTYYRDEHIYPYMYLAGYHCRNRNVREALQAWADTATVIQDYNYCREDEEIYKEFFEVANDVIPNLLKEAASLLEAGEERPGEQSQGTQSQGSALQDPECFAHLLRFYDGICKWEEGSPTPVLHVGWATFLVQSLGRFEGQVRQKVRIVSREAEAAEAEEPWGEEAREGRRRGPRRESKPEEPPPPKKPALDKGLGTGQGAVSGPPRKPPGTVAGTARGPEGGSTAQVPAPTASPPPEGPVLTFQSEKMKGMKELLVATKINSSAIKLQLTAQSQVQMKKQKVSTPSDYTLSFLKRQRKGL
Experiment: Inhibitory activity against Menin-MLL binding (fluorescence polarization)
Conditions: Menin-MLL IC50, fluorescence polarization; 150 nM His-Menin, 15 nM FITC-MLL; 25°C for 60 min
Procedure: • His-Menin (M1-L615 end), purchased from BIORTUS, Catalog Number: BP9210; and • FITC-MLL4-43, purchased from GenScript, Catalog Number: C491HFF190-3/PE1324.
In a 10 µL reaction solution (20 mM HEPES, pH 7.5, 50 mM NaCl, 1 mM DTT, 0.01% BSA) containing any compound from the examples, 150 nM His-Menin was added to a 384-well plate (Corning, Model: 4514). Each concentration was set up in duplicate wells. After centrifugation at 1000 RPM for 1 min, the plate was incubated at 25°C for 15 min. Then, 15 nM […] (20 mM HEPES, pH 7.5, 50 mM NaCl, 1 mM DTT, 0.01% BSA) was added to a 384-well plate. After centrifugation at 1000 RPM for 1 min, the reaction proceeded at 25°C for 60 min. Changes in fluorescence polarization were measured using a plate reader (PerkinElmer, Envision 2104). Based on the measured signals, the binding inhibition rate of the compound at each concentration was calculated, and the IC50 (half-maximal inhibitory concentration) of the compound was determined using statistical analysis software GraphPad Prism (GraphPad Software, Inc.) by means of a nonlinear fitting formula: 4-Parameter Logistic Model or Sigmoidal Dose-Response Model: Y = Bottom + (Top−Bottom)/(1 + 10^((LogIC50−X) × Hill Slope)), [formula] in which X indicates the logarithm of compound concentration, Y indicates a fluorescence polarization mP value, and Top and Bottom indicate the maximum and minimum readouts of fluorescence polarization mP values. Table 1: Inhibitory Activity of Compounds Against Menin-MLL Binding

| SMILES | IC50 |
| --- | --- |
| CCS(=O)(=O)N(C)[C@H]1CC[C@H](CN2CC(c3cc(-c4ccc(F)cc4C(=O)N4CCOC[C@H]4C)c4cnn(C)c4c3)C2)CC1 [Example 174, N-methyl-N-[(1r,4r)-4-{[3-(4-{4-fluoro-2-[(3R)-3-methylmorpholin-4-carbonyl]phenyl}-1-methyl-1H-indazol-6-yl)azacyclobutan-1-yl]methyl}cyclohexyl]ethan-1-sulfonamide] | 125 nM |

Same assay, conditions: fluorescence polarization; 150 nM His-Menin, 15 nM FITC-MLL; 25°C for 60 min; read-out: Menin-MLL IC50

| SMILES | IC50 |
| --- | --- |
| CCN(C(=O)c1cc(F)ccc1-c1cc(C2CN(C(CCCN3C[C@H]4C[C@@H]3CO4)C(C)C)C2)cc2c(C)ncn12)C(C)C (stereo partly drawn) [Example 465, N-ethyl-5-fluoro-2-[1-methyl-7-(1-{2-methyl-6-[(1R,4R)-2-oxa-5-azabicyclo[2.2.1]heptan-5-yl]hexan-3-yl}azacyclobutan-3-yl)imidazo[1,5-a]pyridin-5-yl]-N-(isopropyl)benzamide] | 3.1 nM |
| CC(=O)N1CCC(CN2CC(Cc3cc(-c4ccc(F)cc4C(=O)N4[C@H](C)COC[C@H]4C)c4c(F)nc(C)n4c3)C2)CC1 [Example 228] | 130 nM |
| CCN(C(=O)c1cc(F)ccc1-c1cc(C2CN([C@H](CN3CCN(CCOC)CC3)C(C)C)C2)cc2c1cnn2C)C(C)C [Example 422] | 29 nM |
| COCC1CN(CCC[C@@H](C(C)C)N2CC(c3cc(-c4ccc(F)cc4C(=O)N4CCOC[C@H]4C)c4cnn(C)c4c3)C2)C1 [Example 183-1] | 507 nM |
| CCN(C(=O)c1cc(F)ccc1-c1cc(N2CCN(CCc3ccc(-c4cc(OC)c(OC)nn4)cc3)CC2)cn2c(C)ncc12)C(C)C [Compound 70, 2-[6-(4-{2-[4-(5,6-dimethoxypyridazin-3-yl)phenyl]ethyl}piperazin-1-yl)-3-methylimidazo[1,5-a]pyridin-8-yl]-N-ethyl-5-fluoro-N-(isopropyl)benzamide] | 93 nM |
| COCC(C1CCOCC1)N1CC(c2cc(-c3ccc(F)cc3C(=O)N3CCOC[C@H]3C)c3cnc(C)n3c2)C1 (stereo partly drawn) [Example 256] | 189 nM |
| CCN(C(=O)c1cc(F)ccc1-c1nc(C2CN(C(CCCN3CCN(CCO)CC3)C(C)C)C2)cn2c(C)ncc12)C(C)C (stereo not drawn) [Example 491, N-ethyl-5-fluoro-2-[6-(1-{6-[4-(2-hydroxyethyl)piperazin-1-yl]-2-methylhexan-3-yl}azacyclobutan-3-yl)-3-methylimidazo[1,5-a]pyrazin-8-yl]-N-(isopropyl)benzamide] | 130 nM |

The remaining lines, values ahead:

| IC50 | SMILES |
| --- | --- |
| 110 nM | CCN(C(=O)c1cc(F)ccc1-c1cc(C2CN([C@@H](CN3CCN(C)CC3)C(C)C)C2)cc2c1cnn2C)C(C)C [Example 402-1, N-ethyl-5-fluoro-2-(1-methyl-6-{1-[(2R)-3-methyl-1-(4-methylpiperazin-1-yl)butan-2-yl]azacyclobutan-3-yl}-1H-indazol-4-yl)-N-(isopropyl)benzamide] |
| 7.7 nM | CCN(C(=O)c1cc(F)ccc1-c1cc(C2CN([C@H](CCCN3CCN(C(=O)OC(C)(C)C)CC3)C(C)C)C2)cn2c(C)ncc12)C(C)C [Example 454-1, 4-[(4R)-4-[3-(8-{2-[ethyl(isopropyl)aminoformyl]-4-fluorophenyl}-3-methylimidazo[1,5-a]pyridin-6-yl)azacyclobutan-1-yl]-5-methylhexyl]piperazin-1-tert-butyl carboxylate] |
| 58 nM | Cc1nc(F)c2c(-c3ccc(F)cc3C(=O)N3CCOC[C@H]3C)cc(C3CN([C@@H](CC[C@@H]4CNCCO4)C(C)C)C3)cn12 [Example 245-2, (3R)-4-[5-fluoro-2-(1-fluoro-3-methyl-6-{1-[(3S)-4-methyl-1-[(2R)-morpholin-2-yl]pentan-3-yl]azacyclobutan-3-yl}imidazo[1,5-a]pyridin-8yl)benzoyl]-3-methylmorpholine] |
| 20 nM | CCN(C(=O)c1cc(F)ccc1-c1cc(C2CN([C@H](C)C3CCN(C(=O)NC)CC3)C2)cn2c(C)nc(F)c12)C(C)C [Example 283-1] |
